{"source": "patent US5157032A", "about": "“Mixed ligand complexes and uses thereof as binding agents and probes to DNA” (The Trustees of Columbia University In The City of New York, priority 1990, dated 1992)", "key": {"[1]": {"tested_on": "distamycin binding sites on end-labeled DNA fragment", "details": "comparison reagents; cited from earlier work"}, "[2]": {"tested_on": "EcoRI site on end-labeled DNA fragment", "experiment": "Footprinting of EcoRI", "assay_type": "binding", "details": "in words"}, "[3]": {"tested_on": "distamycin binding sites on end-labeled DNA fragment", "experiment": "Footprinting of distamycin", "details": "in words"}, "[4]": {"tested_on": "poly r(AU).r(AU)", "experiment": "Luminescence with poly r(AU).r(AU)", "assay_type": "binding", "description": "It appears then that luminescence is observed only when the ruthenium complex is intercalated in (or perhaps otherwise protected by) the nucleic acid structure. […] The relative luminescence of ruthenium complexes in the presence of various helical DNA's under varying conditions is shown in Table 16."}, "[5]": {"tested_on": "B-form DNA", "experiment": "Steady state luminescence polarization with B-form DNA", "assay_type": "binding", "details": "100 μM DNA", "protocol": "(§1) FIG. 22 Steady State Polarization of Ru(bpy)2 (dppz)^2+ with B and Z-form DNA Under the conditions that provide B-form (lower curve) DNA the highest measured polarization is 0.15 with a limiting polarization 0.10. Under the conditions that provide Z-DNA (upper curve) the highest polarization is 0.35 with a limiting polarization of 0.14. Ru(bpy)2 (dppz)^2+ 10 μM, poly d(GC) d(GC) 100 μM, λex =482 nm.\nTo further test the extent of intercalation of this complex a study of the steady state luminescence polarization of the complex bound to each form of DNA was made. These experiments give information on how rigidly the complex is held by the DNA. […] This reflects a situation where the complex is completely bound to the right-handed helix. As the concentration of Ru(bpy)2 (dppz)^2+ increases, the polarization decreases to limiting value (0.10) at a complex:base pair ratio of 1:10.\nTo further test the extent of intercalation of this complex we studied the steady state luminescence polarization of the complex bound to each form of DNA. These experiments give information on how rigidly the complex is held by the DNA. […] This reflects a situation where the complex is completely bound to the right-handed helix. As the concentration of Ru(bpy)2 (dppz)^2+ increases, the polarization decreases to a limiting value (0.10) at a complex: base pair rtio of 1:10."}, "[6]": {"tested_on": "poly d(GC).d(GC) Z-form DNA", "experiment": "Luminescence with poly d(GC).d(GC), Z-form", "assay_type": "binding", "protocol": "(§2) FIG. 21A to 21C: Luminescent Enhancement of Ru(bpy)2 (dppz)^2+ with B and Z-form DNA a. Ru(bpy)2 (dppz)^2+ 10 μM in buffer R=50.0 mM NaCl, 5.0 mM Tris-OH, pH=7.0. b. Ru(bpy)2 (dppz)2 10 μM in buffer R, with poly d(GC) d(GC) 100 μM under conditions providing B-form DNA. c. Ru(bpy)2 (dppz)^2+ 10 μM in buffer R-L=20.0 mM NaCl, 2.0 mM Tris-OH, pH 7.0, Co(NH3)6^3+ 4μM., with poly d(GC) d(GC) 100 μM under conditions providing Z-form DNA. All λex =482 nm.\nPreparations of Ru(bpy)2 (dppz)^2+ (10 μM) in buffer R^(40) and buffer R-L^(41) (pH 7.0) produced species that were nonluminescent solutions (FIG. 21a) (λirr =482 nm). […] Luminescent behavior such as this can be attributed to a highly intercalated species. This must be due to the complex being bound to the Z-form and not due to lower salt conditions (or added Co(NH3)6^3+) as the under the same Z-form producing conditions, calf thymus DNA produces the expected B-form luminescence.\nAn interesting twist to the luminescent properties of Ru(bpy)2 (dppz)^2+ is observed when this complex is bound to the left handed helix Z-form DNA. […] Luminescent behavior such as this can be attributed to a highly intercalated species. This must be due to the complex being bound to the Z-from nand not due to lower salt conditions (or added Co(NH3)6^3+) as the under the same Z-form producing conditions, calf thymus DNA produces the expected B-from luminescence."}, "[7]": {"tested_on": "electrophoresed DNA in agarose gel", "experiment": "Staining of DNA in agarose gels", "details": "in words", "description": "One interesting application is the binding of this complex to DNA that has been electrophoresed in a agarose gel."}, "[8]": {"tested_on": "poly d(AT).d(AT)", "experiment": "Luminescence with poly d(AT).d(AT)", "assay_type": "binding", "details": "Buffer (50.0 mM NaCl), 25"}, "[9]": {"tested_on": "Z-form DNA", "experiment": "Steady state luminescence polarization with Z-form DNA", "assay_type": "binding", "protocol": "as §1\nSimilarly, when 1 μM Ru(bpy)2 (dppz)^2+ is titrated into poly d(GC).d(GC) (100 μM) in the Z-form, luminescence polarization is also observed, but in this case the value is 0.35, over double the value found with the analogous solution with B-form. […] As more complex is added the observed polarization reduces to a limiting value of 0.14, still higher than the analogous sample with B-form, thus further confirming the Z-form is a more rigid structure than the B-form."}, "[10]": {"tested_on": "poly d(GC).d(GC) B-form DNA", "experiment": "Luminescence with poly d(GC).d(GC), B-form", "assay_type": "binding", "protocol": "as §2\nAs expected, preparations of Ru(bpy)2(dppz)^2+ (10 μM) in buffer R(^9) and buffer R-L(^10) (pH=7.0) produced species that were nonluminescent solutions (FIG. 21a) (λirr =482 nm)."}, "[11]": {"tested_on": "CT DNA", "experiment": "Luminescence in presence of CT DNA", "assay_type": "binding, calf", "protocol": "While a linear relationship of the luminescence is observed for Ru(bpy)2 (dppz)^2+ in iso-propanol as a function of temperature this is not the behavior seen when the complex is bound to DNA. When the complex, Ru(bpy)2 (dppz)^2+ is bound to cal-thymus (CT) DNA (100 μM) under low salt conditions at 25 ° C. a biexponential lifetime is observed. A short component which is assigned to a surface interaction, and a long component which is assigned to an intercalated species. As is shown in Table 1, the short component remains relatively unchanged until 70 ° C. when there is an abrupt decrease in the lifetime to 45 ns at 85° C. […] Under these conditions the CT DNA melts and the observed lifetimes of the complexes are similar to those lifetimes measured with single stranded DNA. […] In fact there is an abrupt decrease in the quantum yield at the melting temperature at this salt concentration. This decrease in quantum yield may be explained thus: when the complex is bound to the double stranded form the quenching ability of H2 O is inhibited while at the melting temperature the single stranded form of DNA cannot protect the complex from quenching of H2 O and therefore the observed luminescence is not as intense."}, "[12]": {"tested_on": "calf thymus DNA", "experiment": "Equilibrium dialysis of racemic complexes against calf thymus DNA (Scatchard, dialysate CD)", "assay_type": "binding", "details": "in words", "protocol": "Equilibrium Dialysis: Equlibrium dialysis of the reacemic metal complexes was perforemd against calf-thymus DNA using procedures described previously. (74) The buffer used was 5 mM Tris, 50 mM NaCl at pH 7.5. Samples were agitated on a shaker bath during equilibration which occurred after three to five days, as determined by control samples containing no DNA. After equilibration, volumes of liquid inside and outside the dialysis bags were determined (approximately 1 and 3 mls, respectively) and circular dichroism of the dialysate was meaxured on a Jasco J-40 spectropolarimeter. Final ruthenium concentration inside and outside the bags were measured by visible absorbance. Data anaylsis was performed on a VAX-780 using non-linear least squares analysis.\nEquilibrium Dialysis: Equilibrium binding constants for the metal complexes with DNA may be determined classically by equilibrium dialysis. Calf thymus DNA was dialyzed against the series of mixed ligand complexes using a broad range of ruthenium concentrations. […] The results have been plotted according to Scatchard (88), where r is the ratio of bound metal to DNA-phosphate concentration, and cf is the concentration of free metal complex. The data were fit by non-linear least squares analysis to the McGhee and von Hippel equation (8945) governing random non-cooperative binding to a lattice,\nwhere r is the ratio of bound concentration of ruthenium to the concentration of DNA-phosphate, cf is the concentration of ruthenium free in soltuion, Kb the intrinsic binding constant, and the integer /, which measures the degree of anti-cooperativeity, is the size of a binding site in base pairs. The curves shown reflect the best fit after variation of two parameters: the intrinsic binding constant, Kb, and binding stie size, /. For those complexes were cooperatively was observed, the equation (89) incorporating a cooperativity parameter was used.\nEquilibrium dialysis experiments additionally offer the opportunity to examine any enantiomeric selectivities associated with binding. After dialysis of the DNA against the racemic mixture, optical activity observed in the dialysate refelects an enrichment in the dialysate in the less favored enantiomer. For most of the complexes, optical activity was found in the dialysate. Values for the extent of enantiomeric selectivity could not be quanitated in the absence of determinations of DE and assignments of absolute configuration. Assuming that the signs of the circular chroism in the ultraviolet ligand bands are the same for the these ligands as that for the parent phenanthroline complex, (90) we have assigned the absolute configuration of these complexes by comparison to spectra for enantiomers of Ru(phen)3^2+ and have compared levels of enantioselectivity qualitatively through measurements of circular dichroic intensity per rutheium bound. Based upon these assumptions, we find enantionmeric selectivities for the polyridyl complexes to reflect an enrichment in the isomer in the dialysate and the preferential binding of the isomer to the right-handed DNA. This observation is consistent with the preferential intercalation of isomers found earlier for Ru(phen)3^2+ in right-handed B-DNA. (63) We may also compare relative enantioselectivities for different ancillary ligands. […] The same comparison may be seen qualitatively between Ru(phen)2 DIP^2+ and Ru(bpy)2 DIP^2+."}, "[13]": {"experiment": "Stability / handling", "assay_type": "physicochemical", "details": "in words"}, "[14]": {"tested_on": "pBR322 DNA", "details": "reference intercalator; cited from earlier work"}, "[15]": {"details": "10 μM complex, 100 μM DNA, buffer R-L"}}, "note": "“Also recorded” adds a separate entry of the source.", "data": [{"smiles": "[Cu+].c1cnc2c(c1)ccc1cccnc12.c1cnc2c(c1)ccc1cccnc12", "note": "[Cu(phen)2 +]", "values": [{"measurement": "3'-shift of distamycin footprint", "setting": "[1]", "result": "2-3 pair"}, {"measurement": "footprint quality, EcoRI", "setting": "[2]", "result": "failed to footprint the protein"}, {"measurement": "footprint quality, distamycin", "setting": "[3]", "result": "lacks the necessary sequence neutrality"}]}, {"smiles": "[Ru+2].c1ccc(-c2ccccn2)nc1.c1ccc(-c2ccccn2)nc1.c1ccc2nc3c4cccnc4c4ncccc4c3nc2c1", "note": "[Ru(bpy)2 (dppz)^2+]", "values": [{"measurement": "luminescence with poly r(AU).r(AU)", "setting": "[4]; 10 μM complex, 100 μM RNA, buffer R", "result": "no luminescence"}, {"measurement": "Rel. Lumi.", "setting": "[4]; Buffer (50.0 mM NaCl), 25", "result": 0.01}, {"measurement": "highest luminescence polarization, B-form", "setting": "[5]; 1 μM probe", "result": 0.15}, {"measurement": "limiting luminescence polarization, B-form", "setting": "[5]", "result": 0.10}, {"measurement": "luminescence with Z-form DNA", "setting": "[6]; [15]", "result": "highly luminescent"}, {"measurement": "luminescence λmax with Z-form DNA", "setting": "[6]; [15]", "result": 640, "unit": "nm"}, {"measurement": "effect on Z to B transition", "setting": "[6]; circular dichroism, over hours", "result": "does not cause the Z to B transition"}, {"measurement": "staining of DNA in agarose gels", "setting": "[7]", "result": "no background luminescence from the complex bound to agarose"}, {"measurement": "Rel. Lumi.", "setting": "[8]", "result": 0.68}, {"measurement": "highest luminescence polarization, Z-form", "setting": "[9]; 1 μM complex, 100 μM DNA", "result": 0.35}, {"measurement": "limiting luminescence polarization, Z-form", "setting": "[9]; 100 μM DNA", "result": 0.14}, {"measurement": "relative strength of binding, Z-form vs B-form", "setting": "[9]; in words", "result": "binds better to the Z-form; also recorded: held more rigidly by Z-form than by the analogous B-form"}, {"measurement": "luminescence with B-form DNA", "setting": "[10]; 10 μM complex, 100 μM DNA", "result": "highly luminescent"}, {"measurement": "luminescence λmax with B-form DNA", "setting": "[10]; 10 μM complex, 100 μM DNA", "result": 628, "unit": "nm"}, {"measurement": "Rel. Lumi.", "setting": "[10]; Buffer (50.0 mM NaCl), poly d(GC).d(GC), 25", "result": 0.72}, {"measurement": "Rel. Lumi.", "setting": "[11]; Buffer (50.0 mM NaCl), 25", "result": 0.55}, {"measurement": "Rel. Lumi.", "setting": "[11]; Buffer (50.0 mM NaCl), 75", "result": 0.53}, {"measurement": "Rel. Lumi.", "setting": "[11]; Buffer** (0.5 mM NaCl), 25", "result": 0.61}, {"measurement": "Rel. Lumi.", "setting": "[11]; Buffer** (0.5 mM NaCl), 35", "result": 0.06}, {"measurement": "Rel. Lumi.", "setting": "[11]; Buffer** (0.5 mM NaCl), 45", "result": 0.59}, {"measurement": "Rel. Lumi.", "setting": "[11]; Buffer** (0.5 mM NaCl), 55", "result": 0.55}, {"measurement": "Rel. Lumi.", "setting": "[11]; Buffer** (0.5 mM NaCl), 70", "result": 0.47}, {"measurement": "Rel. Lumi.", "setting": "[11]; Buffer** (0.5 mM NaCl), 90", "result": 0.23}]}, {"smiles": "N=C1C(=N)c2ccccc2-c2ccccc21.N=C1C(=N)c2ccccc2-c2ccccc21.N=C1C(=N)c2ccccc2-c2ccccc21.[Ru+2]", "note": "[Ru(phi)3^2+]", "values": [{"measurement": "aggregation in solution", "setting": "[12]", "result": "extensive aggregation"}, {"measurement": "stability", "setting": "[13]", "result": "does not decompose upon exposure to air or by continuous irradiation with visible light"}]}, {"smiles": "CC[n+]1c(-c2ccccc2)c2cc(N)ccc2c2ccc(N)cc21", "note": "[ethidium, reference compound]", "values": [{"measurement": "staining of DNA in agarose gels", "setting": "[7]", "result": "found to stain DNA imbedded in the agarose gels"}, {"measurement": "Unwinding Angle", "setting": "[14]", "result": 26, "unit": "°"}]}]}
